In paper PMC2363406 (British Journal of Cancer, 2000):
Values joined by “and” are separate entries in the source; they are usually repeats but may differ in a detail not shown here. Equal entries are not always repeated. “Also recorded” adds a separate entry of the source. Structures can show the parent of a compound that is named as a salt. Where two headings read alike, the source gives them in different places.

How the values were obtained:
cytochrome P450 = settings: cited from earlier work; for effect on the metabolism of paclitaxel: 1997; for metabolic interactions with paclitaxel: paclitaxel pre-medication drugs, 1995, Schlichenmyer et al
HNX22B = assay: In vitro growth inhibition (SRB assay), single agents and nolatrexed/paclitaxel combination (Chou and Talalay combination index); assay type: cell-based
[1] = Clinical plasma pharmacokinetics of nolatrexed (HPLC, non-compartmental analysis); assay type: in vivo, human; settings: for half-life: human, plasma, iv, Nolatrexed Half-life; for half-life / Nolatrexed Half-life / Nolatrexed Clearance: nolatrexed 500 mg m-2 day-1 120-h i.v. infusion
CYP2C8 = biological target: T1, CYP2C8 (Homo sapiens, UniProt P10632); assay: Inhibition of paclitaxel metabolism to 6-hydroxypaclitaxel in pooled human liver microsomes; assay type: in vitro ADME
T1 construct: Pooled human liver microsomes (1 mg protein per ml) were incubated with paclitaxel; tissue Keystone Skin Bank Exton, PA, USA; host or cells: pooled human liver microsomes from ten individual livers
T1 sequence (P10632 1-490): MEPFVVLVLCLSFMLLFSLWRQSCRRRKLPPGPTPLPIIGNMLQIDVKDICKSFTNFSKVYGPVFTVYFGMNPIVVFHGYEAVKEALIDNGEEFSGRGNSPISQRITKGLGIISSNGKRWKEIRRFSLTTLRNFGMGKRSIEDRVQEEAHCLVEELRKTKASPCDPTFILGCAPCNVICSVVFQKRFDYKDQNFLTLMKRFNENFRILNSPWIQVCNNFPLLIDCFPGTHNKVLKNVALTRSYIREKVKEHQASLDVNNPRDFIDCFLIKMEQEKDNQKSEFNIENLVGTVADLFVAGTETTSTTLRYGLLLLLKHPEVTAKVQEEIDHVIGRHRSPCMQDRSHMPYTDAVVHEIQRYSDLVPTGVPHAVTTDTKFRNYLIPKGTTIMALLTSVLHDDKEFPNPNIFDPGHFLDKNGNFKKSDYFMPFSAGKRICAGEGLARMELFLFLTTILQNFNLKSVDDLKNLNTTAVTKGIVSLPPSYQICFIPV

HNX14C = assay: In vitro growth inhibition (SRB assay), single agents and nolatrexed/paclitaxel combination (Chou and Talalay combination index); assay type: cell-based
[2] = Clinical plasma pharmacokinetics of paclitaxel and its metabolites (HPLC, non-compartmental analysis); settings: for AUC / half-life: human
[3] = single agent, 135 mg m-2, cited from earlier work
[4] = in vitro studies, ref Jamis-Dow et al
[5] = human liver preparations and patients, ref Harris et al, 1994, Kuhn et al
[6] = schedule 1, patients 3, 6, 9 in order
[7] = schedule 2, patients 5, 7, 10 in order
[8] = schedule 3, patients 2, 4, 8 in order
[9] = 3-h paclitaxel exposure, single agent, mean (s.d.) n = 3
[10] = schedule 1, paclitaxel 80 mg m-2 3-h i.v., course 1, patients 3, 6, 9 in order
[11] = schedule 2, paclitaxel 80 mg m-2
[12] = schedule 2, paclitaxel 80 mg m-2 3-h i.v., course 1, patients 5, 7, 10 in order

## CC(=O)N1CCN(c2ccc(OCC3COC(Cn4ccnc4)(c4ccc(Cl)cc4Cl)O3)cc2)CC1 (stereo not drawn) [ketoconazole]
Cytochrome P450; [4]
  effect on the metabolism of paclitaxel: inhibit the metabolism of paclitaxel

## C[C@@H]1C[C@H]2[C@@H]3CCC4=CC(=O)C=C[C@]4(C)[C@@]3(F)[C@@H](O)C[C@]2(C)[C@@]1(O)C(=O)CO [dexamethasone]
Cytochrome P450; ref Jamis-Dow et al
  metabolic interactions with paclitaxel: no metabolic interactions

## OC(Cn1cncn1)(Cn1cncn1)c1ccc(F)cc1F [fluconazole]
Cytochrome P450; [4]
  effect on the metabolism of paclitaxel: inhibit the metabolism of paclitaxel

## O=C1NC(=O)C(c2ccccc2)(c2ccccc2)N1 [phenytoin]
Cytochrome P450; [5]
  effect on the metabolism of paclitaxel: increase the metabolism of paclitaxel

## Cc1ccc2nc(N)[nH]c(=O)c2c1Sc1ccncc1 [nolatrexed, 3,4-dihydro-2-amino-6-methyl-4-oxo-5-(4-pyridylthio)-quinazolone dihydrochloride]
HNX22B; 120 h
  IC50: 660 nM
[1]; [6]
  half-life: 1.1 h
  Nolatrexed Half-life: 1.88 h and 2.13 h
[1]; [7]
  half-life: 1.97 h
  Nolatrexed Clearance: 73 ml min-1 m-2 and 108 ml min-1 m-2 and 91 ml min-1 m-2
  Nolatrexed Half-life: 1.58 h and 2.57 h
[1]; [8]
  half-life: 1.62 h
  Nolatrexed Clearance: 99 ml min-1 m-2 and 62 ml min-1 m-2 and 79 ml min-1 m-2
  Nolatrexed Half-life: 2.2 h and 1.9 h
[1]; three schedules with paclitaxel
  effect of schedule on the pharmacokinetics of nolatrexed: no effect of schedule; also recorded: unaffected by schedule
CYP2C8; human liver microsomes, statement in words
  inhibition of paclitaxel metabolism: being an inhibitor of the major routes of metabolism of paclitaxel
CYP2C8; read-out: Ki, inhibition of metabolism of paclitaxel to its 6-hydroxy-metabolite
  Ki: 640 nM
HNX14C; 120 h
  IC50: 1120 nM

## CN(C)CCC(c1ccc(Cl)cc1)c1ccccn1 (stereo not drawn) [chlorpheniramine]
Cytochrome P450; ref Jamis-Dow et al
  metabolic interactions with paclitaxel: no metabolic interactions

## CC(=O)O[C@H]1C(=O)[C@@]2(C)[C@H]([C@H](OC(=O)c3ccccc3)[C@]3(O)C[C@H](OC(=O)[C@H](O)[C@@H](NC(=O)c4ccccc4)c4ccccc4)C(C)=C1C3(C)C)[C@]1(OC(C)=O)CO[C@@H]1C[C@@H]2O [paclitaxel]
HNX22B; [9]
  IC50: 38 nM
[2]; plasma, intravenous, 80 mg, AUCs of paclitaxel, schedules 1 and 3 (except patient 8), paclitaxel 80 mg m-2
  AUC: 3 to 4.85 µM·h
[2]; plasma, intravenous, 135 mg m-2, Paclitaxel AUC, patient 8, single-agent paclitaxel 135 mg m-2 as 3-h infusion, no nolatrexed
  AUC: 20.6 µM·h
[2]; plasma, intravenous, 135 mg m-2, Paclitaxel Half-life, patient 8, single-agent paclitaxel 135 mg m-2 as 3-h infusion, no nolatrexed
  half-life: 6 h
[2]; plasma, iv, 80 mg, Paclitaxel AUC, schedule 1, paclitaxel 80 mg m-2 3-h i.v., course 1, patients 3, 6, 9 in order
  AUC: 3.78 µM·h
[2]; plasma, iv, 80 mg, Paclitaxel AUC, schedule 2, paclitaxel 80 mg m-2 3-h i.v., course 1, patients 5, 7, 10 in order
  AUC: 9.42 µM·h
[2]; plasma, iv, 80 mg, Paclitaxel Half-life, schedule 1, paclitaxel 80 mg m-2 3-h i.v., course 1, patients 3, 6, 9 in order
  half-life: 7.02 h
[2]; plasma, iv, 80 mg, Paclitaxel Half-life, schedule 2, paclitaxel 80 mg m-2 3-h i.v., course 1, patients 5, 7, 10 in order
  half-life: 6.88 h
[2]; plasma, iv, 80 mg, Paclitaxel Half-life, schedule 3, paclitaxel 80 mg m-2 3-h i.v., course 1, patients 2, 4, 8 in order
  half-life: 6.08 h
[2]; patient 8, single-agent paclitaxel 135 mg m-2 as 3-h infusion, no nolatrexed
  Paclitaxel Clearance: 127 ml min-1 m-2
[2]; patients on schedules 1 and 3 (with the exception of patient 8), paclitaxel 80 mg m-2
  clearance of paclitaxel: 322–520 ml min-1 m-2 and 322-520 ml min-1 m-2
[2]; [10]
  Paclitaxel Clearance: 376 ml min-1 m-2 and 322 ml min-1 m-2 and 411 ml min-1 m-2
  Paclitaxel Half-life: 7.37 h and 8.45 h
[2]; schedule 2
  time above plasma paclitaxel concentration of 0.05 M: 16 to 27 h
  time above plasma paclitaxel concentration of 0.1 M: 10 to 18 h
[2]; schedule 2 (nolatrexed 0-120 h, paclitaxel 48-51 h), paclitaxel 80 mg m-2 3-h i.v., plasma, course 1, patients 5, 7, 10 in order
  Paclitaxel Peak conc.: 1.66-1.93 M
[2]; [11]
  areas under the curve of paclitaxel: 392 to 565 µM/min
  peak plasma concentrations of paclitaxel: 1.66 to 1.93 µM
[2]; [12]
  Paclitaxel Clearance: 165–238 ml min-1 m-2 and 165 ml min-1 m-2 and 238 ml min-1 m-2 and 171 ml min-1 m-2 and 165-238 ml min-1 m-2
  Paclitaxel Half-life: 6.35 h and 6.93 h
[2]; schedule 2, paclitaxel 80 mg m-2 3-h i.v., plasma, course 1, patients 5, 7, 10 in order
  Paclitaxel AUC: 392 to 565 M/min
[2]; schedule 3, paclitaxel 80 mg m-2 3-h i.v., course 1, patients 2, 4, 8 in order
  Paclitaxel Half-life: 8.42 h and 6.35 h
[2]; schedules 1 and 3
  time above plasma paclitaxel concentration of 0.05 M: 8 to 18 h
  time above plasma paclitaxel concentration of 0.1 M: 5 to 8 h
[2]; schedules 1 and 3 (except patient 8), paclitaxel 80 mg m-2
  peak plasma concentrations of paclitaxel: 860000 to 1.32e+06 µM
[3]; ref Gianni, 1995
  Paclitaxel Clearance: 247 ml min-1 m-2
[3]; ref Keung, 1993
  Paclitaxel Clearance: 295 ml min-1 m-2
HNX14C; [9]
  IC50: 31 nM

## CCC1(c2ccccc2)C(=O)NC(=O)NC1=O [phenobarbitone]
Cytochrome P450; [5]
  effect on the metabolism of paclitaxel: increase the metabolism of paclitaxel

## CN/C(=N/CCSCc1nc[nH]c1C)NC#N [cimetidine]
Cytochrome P450; ref Jamis-Dow et al
  metabolic interactions with paclitaxel: no metabolic interactions
